From patent publication US20240228489A1, “POSITIVE ALLOSTERIC MODULATORS OF THE MUSCARINIC ACETYLCHOLINE RECEPTOR M1” (Vanderbilt University, priority 2021, published 2024)
pEC50: −log10 of the molar value.

Legend:
[1] = biological target: T1, human mAChR M1 (Homo sapiens, UniProt P11229); experiment: mAChR M1 cell-based functional assay (calcium mobilization), agonist mode: compound alone, Emax relative to acetylcholine maximum; settings: for pEC50 / Agonist Activity Human M1 EC50: human mAChR M1; for Emax / Agonist Activity Emax: relative to the maximum for acetylcholine
T1 sequence (P11229 1-460): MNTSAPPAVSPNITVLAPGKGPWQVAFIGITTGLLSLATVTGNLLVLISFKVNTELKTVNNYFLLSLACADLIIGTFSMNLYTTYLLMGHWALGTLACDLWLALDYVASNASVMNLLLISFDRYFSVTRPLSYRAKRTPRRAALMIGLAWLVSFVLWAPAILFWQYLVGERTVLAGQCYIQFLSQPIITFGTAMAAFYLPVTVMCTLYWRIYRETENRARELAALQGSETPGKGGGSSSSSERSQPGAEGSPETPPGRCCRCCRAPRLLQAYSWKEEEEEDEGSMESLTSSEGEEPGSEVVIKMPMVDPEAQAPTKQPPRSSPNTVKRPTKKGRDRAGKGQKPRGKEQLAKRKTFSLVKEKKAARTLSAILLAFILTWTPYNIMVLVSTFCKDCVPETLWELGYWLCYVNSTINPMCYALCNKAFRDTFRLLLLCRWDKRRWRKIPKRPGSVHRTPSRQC
Outline: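 CHO-K1 cells stably expressing hM1 were loaded with Fluo-4 AM, and calcium flux was read as fluorescence ratio. Compound was added alone from an 11-point 1:3 curve, and the agonist response was fitted with a four-parameter logistic. Emax is expressed relative to the acetylcholine maximum.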

[2] = biological target: T1, human mAChR M1; experiment: mAChR M1 cell-based functional assay (calcium mobilization), PAM mode: increase in the EC20 acetylcholine response
Outline: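 CHO-K1 cells stably expressing hM1, Fluo-4 loaded, read by FDSS calcium flux at 1 Hz. Compound (11-point 1:3 CRC) added at 4 s, EC20 acetylcholine at 144 s, EC80 at 230 s. PAM activity taken as concentration-dependent increase in EC20 ACh response, fitted by four-parameter logistic for EC50/Emax.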

SMILES	pEC50 [1]	Emax [1]	pEC50 [2]	Emax [2]	Agonist Activity Human M1 EC50 [1]	Agonist Activity Emax [1]	PAM Activity Emax [2]
[2H]C1([2H])c2ncccc2C(=O)N1Cc1c(F)cc(-c2cccc3nn(C)cc23)cc1F [Compound 1, 6-(2,6-difluoro-4-(2-methyl-2H-indazol-4-yl)benzyl)-6,7-dihydro-5H-pyrrolo[3,4-b]pyridin-5-one-7,7-d2]		8%	6.27	84%	Inactive		
[2H]C1([2H])c2ncccc2C(=O)N1Cc1c(F)cc(-c2ccc(OC(F)(F)F)c3nn(C([2H])([2H])[2H])cc23)cc1F [Compound 104, 6-(2,6-difluoro-4-(2-(methyl-d3)-7-(trifluoromethoxy)-2H-indazol-4-yl)benzyl)-6,7-dihydro-5H-pyrrolo[3,4-b]pyridin-5-one-7,7-d2]		2%	5.93	69%	Inactive		
[2H]C1([2H])c2ncccc2C(=O)N1Cc1c(F)cc(-c2cc(F)c(Cl)c3nn(C)cc23)cc1F [Compound 77, 6-(4-(7-chloro-6-fluoro-2-methyl-2H-indazol-4-yl)-2,6-difluorobenzyl)-6,7-dihydro-5H-pyrrolo[3,4-b]pyridin-5-one-7,7-d2]			5.87		Inactive	1%	47%
[2H]C1([2H])c2ncccc2C(=O)N1Cc1c(F)cc(-c2cn(C)c(=O)c3c2cnn3C)cc1F [Compound 80, 4-(3,5-difluoro-4-((5-oxo-5,7-dihydro-6H-pyrrolo[3,4-b]pyridin-6-yl-7,7-d2)methyl)phenyl)-1,6-dimethyl-1,6-dihydro-7H-pyrazolo[3,4-c]pyridin-7-one]		1%	5.65	59%	Inactive		
[2H]C1([2H])c2ncccc2C(=O)N1Cc1c(F)cc(-c2ccc(OC(C)COC)c3nn(C)cc23)cc1F (stereo not shown) [Compound 133, 6-(2,6-difluoro-4-(7-((1-methoxypropan-2-yl)oxy)-2-methyl-2H-indazol-4-yl)benzyl)-6,7-dihydro-5H-pyrrolo[3,4-b]pyridin-5-one-7,7-d2]	≤ 5.00	35%	6.31	79%			
[2H]C1([2H])c2ncccc2C(=O)N1Cc1ccc(-c2ccc(C)c3nn(C)cc23)cc1F [Compound 28, 6-(4-(2,7-dimethyl-2H-indazol-4-yl)-2-fluorobenzyl)-6,7-dihydro-5H-pyrrolo[3,4-b]pyridin-5-one-7,7-d2]	5.20	28%	6.27	80%			
[2H]C1([2H])c2ncccc2C(=O)N1Cc1c(F)cc(-c2cccc3c2cnn3C(F)F)cc1F [Compound 60, 6-(4-(1-(difluoromethyl)-1H-indazol-4-yl)-2,6-difluorobenzyl)-6,7-dihydro-5H-pyrrolo[3,4-b]pyridin-5-one-7,7-d2]			6.16		Inactive	4%	34%

Second part, the compound after the results:

pEC50 [1]	Emax [1]	pEC50 [2]	Emax [2]	Agonist Activity Human M1 EC50 [1]	Agonist Activity Emax [1]	PAM Activity Emax [2]	SMILES
≤ 5.00	15%	5.87	79%				[2H]C1([2H])c2ncccc2C(=O)N1Cc1ccc(-c2ccc(OCCOC(C)C)c3nn(C)cc23)cc1F [Compound 153, 6-(2-fluoro-4-(7-(2-isopropoxyethoxy)-2-methyl-2H-indazol-4-yl)benzyl)-6,7-dihydro-5H-pyrrolo[3,4-b]pyridin-5-one-7,7-d2]
	2%	< 5.00	47%	Inactive			[2H]C1([2H])c2ncccc2C(=O)N1Cc1ccc(-c2ccc3c(cnn3C)c2)cc1 [Compound 237, 6-(4-(1-methyl-1H-indazol-5-yl)benzyl)-6,7-dihydro-5H-pyrrolo[3,4-b]pyridin-5-one-7,7-d2]
	4%	6.32	81%	Inactive			[2H]C1([2H])c2ncccc2C(=O)N1Cc1c(C)cc(-c2ccc(Cl)c3nn(C)cc23)cc1F [Compound 199, 6-(4-(7-chloro-2-methyl-2H-indazol-4-yl)-2-fluoro-6-methylbenzyl)-6,7-dihydro-5H-pyrrolo[3,4-b]pyridin-5-one-7,7-d2]
